Assay results taken from ChEMBL document CHEMBL1126404, “A novel approach to the site specific delivery of potential HMG-CoA reductase inhibitors” (Bioorg Med Chem Lett, 1992).

What was measured:
[1] = target: T1, 3-hydroxy-3-methylglutaryl-coenzyme A reductase (Rattus norvegicus) (UniProt P51639)
T1 sequence (whole entry): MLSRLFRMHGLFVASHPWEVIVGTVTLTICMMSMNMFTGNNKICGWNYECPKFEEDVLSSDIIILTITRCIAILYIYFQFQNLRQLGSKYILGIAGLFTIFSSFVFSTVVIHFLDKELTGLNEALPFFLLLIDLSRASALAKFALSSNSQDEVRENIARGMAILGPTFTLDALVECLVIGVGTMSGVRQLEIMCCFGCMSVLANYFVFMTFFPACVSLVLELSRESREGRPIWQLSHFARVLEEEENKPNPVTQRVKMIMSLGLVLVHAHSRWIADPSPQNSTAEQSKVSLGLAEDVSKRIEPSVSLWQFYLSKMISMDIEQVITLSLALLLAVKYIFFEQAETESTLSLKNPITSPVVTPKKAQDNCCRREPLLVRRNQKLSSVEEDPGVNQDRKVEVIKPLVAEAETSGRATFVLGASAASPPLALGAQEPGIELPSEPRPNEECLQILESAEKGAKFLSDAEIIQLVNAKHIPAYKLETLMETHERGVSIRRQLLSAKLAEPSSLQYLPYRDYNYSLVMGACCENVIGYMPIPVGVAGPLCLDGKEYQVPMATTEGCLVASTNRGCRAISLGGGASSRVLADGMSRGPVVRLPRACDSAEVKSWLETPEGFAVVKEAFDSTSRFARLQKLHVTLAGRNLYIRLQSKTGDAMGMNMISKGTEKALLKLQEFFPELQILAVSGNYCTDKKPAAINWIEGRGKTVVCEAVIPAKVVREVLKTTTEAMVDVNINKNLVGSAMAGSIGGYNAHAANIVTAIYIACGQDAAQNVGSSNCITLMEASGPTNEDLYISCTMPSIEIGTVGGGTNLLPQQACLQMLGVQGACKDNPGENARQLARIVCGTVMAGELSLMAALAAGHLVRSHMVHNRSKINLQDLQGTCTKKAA
Description: The compound was evaluated for Inhibition of rat hepatic microsomal HMG-CoA reductase at log concentration of ~-11/M

[2] = target: T1, 3-hydroxy-3-methylglutaryl-coenzyme A reductase (Rattus norvegicus); experiment: The compound was evaluated for Inhibition of rat hepatic microsomal HMG-CoA reductase at log concentration of ~-6/M.
[3] = target: T1, 3-hydroxy-3-methylglutaryl-coenzyme A reductase (Rattus norvegicus); remark: listed apart in the source
Description: The compound was evaluated for Inhibition of rat hepatic microsomal HMG-CoA reductase at log concentration of ~-9/M.

[4] = target: T1, 3-hydroxy-3-methylglutaryl-coenzyme A reductase (Rattus norvegicus); remark: listed apart in the source
Description: The compound was evaluated for Inhibition of rat hepatic microsomal HMG-CoA reductase at log concentration of ~-10/M.

[5] = target: T2, 3-hydroxy-3-methylglutaryl-coenzyme A reductase (Rattus norvegicus, UniProt P51639); experiment: The compound was evaluated for Inhibition of rat hepatic microsomal HMG-CoA reductase.
T2 sequence (P51639 whole entry): T1 sequence (whole entry)

[6] = target: T1, 3-hydroxy-3-methylglutaryl-coenzyme A reductase (Rattus norvegicus); experiment: The compound was evaluated for Inhibition of rat hepatic microsomal HMG-CoA reductase at log concentration of ~-4/M
[7] = target: T1, 3-hydroxy-3-methylglutaryl-coenzyme A reductase (Rattus norvegicus); experiment: The compound was evaluated for Inhibition of rat hepatic microsomal HMG-CoA reductase at log concentration of ~-6/M
[8] = target: T1, 3-hydroxy-3-methylglutaryl-coenzyme A reductase (Rattus norvegicus); experiment: The compound was evaluated for Inhibition of rat hepatic microsomal HMG-CoA reductase at log concentration of ~-5/M
[9] = target: T1, 3-hydroxy-3-methylglutaryl-coenzyme A reductase (Rattus norvegicus); experiment: The compound was evaluated for Inhibition of rat hepatic microsomal HMG-CoA reductase at log concentration of ~-8/M
[10] = target: T1, 3-hydroxy-3-methylglutaryl-coenzyme A reductase (Rattus norvegicus); experiment: The compound was evaluated for Inhibition of rat hepatic microsomal HMG-CoA reductase at log concentration of ~-3/M
[11] = target: T1, 3-hydroxy-3-methylglutaryl-coenzyme A reductase (Rattus norvegicus); experiment: The compound was evaluated for Inhibition of rat hepatic microsomal HMG-CoA reductase at log concentration of ~-4/M.
[12] = target: T1, 3-hydroxy-3-methylglutaryl-coenzyme A reductase (Rattus norvegicus); experiment: The compound was evaluated for Inhibition of rat hepatic microsomal HMG-CoA reductase at log concentration of ~-7/M.
[13] = target: T1, 3-hydroxy-3-methylglutaryl-coenzyme A reductase (Rattus norvegicus); experiment: The compound was evaluated for Inhibition of rat hepatic microsomal HMG-CoA reductase at log concentration of ~-5/M.
[14] = target: T1, 3-hydroxy-3-methylglutaryl-coenzyme A reductase (Rattus norvegicus); experiment: The compound was evaluated for Inhibition of rat hepatic microsomal HMG-CoA reductase at log concentration of ~-3/M.
[15] = target: T1, 3-hydroxy-3-methylglutaryl-coenzyme A reductase (Rattus norvegicus); experiment: The compound was evaluated for Inhibition of rat hepatic microsomal HMG-CoA reductase at log concentration of ~-8/M.

Compound | Activity (nM min-1 mg-1) [1] | Activity (nM min-1 mg-1) [2] | Activity (nM min-1 mg-1) [3] | Activity (nM min-1 mg-1) [4] | IC50 [5] [µM] | Activity (nM min-1 mg-1) [6] | Activity (nM min-1 mg-1) [7] | Activity (nM min-1 mg-1) [8] | Activity (nM min-1 mg-1) [9] | Activity (nM min-1 mg-1) [10] | Activity (nM min-1 mg-1) [11] | Activity (nM min-1 mg-1) [12] | Activity (nM min-1 mg-1) [13] | Activity (nM min-1 mg-1) [14] | Activity (nM min-1 mg-1) [15]
CC[C@@H](C)C(=O)O[C@H]1C[C@@H](C)C=C2C=C[C@H](C)[C@H](CC[C@@H](O)C[C@@H](O)CC(=O)O)[C@H]21 | 280 | 0 | 240 | 280 |  |  |  |  |  |  |  |  |  |  | 
CC(=O)O[C@@H]1CC[C@@]2(C)[C@@H](C1)C[C@@H](OC(C)=O)[C@@H]1[C@@H]2C[C@H](OC(C)=O)[C@]2(C)[C@@H]([C@H](C)CC(O)CC(O)CC(=O)O)CC[C@@H]12 (some centres not stated) |  |  |  |  | 39.2 | 80 | 280 | 240 | 300 | 0 |  |  |  |  | 
C[C@H](CC(O)CC(O)CC(=O)O)[C@H]1CC[C@H]2[C@@H]3[C@H](O)C[C@@H]4C[C@H](O)CC[C@]4(C)[C@H]3C[C@H](OC(=O)C(C)(C)C)[C@]12C (some centres not stated) |  | 150 |  |  | 12.3 |  |  |  | 280 |  | 0 | 270 | 30 |  | 
COC(=O)CC(=O)CC(O)C[C@@H](C)[C@H]1CC[C@H]2[C@@H]3[C@H](OC(C)=O)C[C@@H]4C[C@H](OC(C)=O)CC[C@]4(C)[C@H]3C[C@H](OC(C)=O)[C@]12C (some centres not stated) |  | 300 |  |  |  |  |  |  |  |  | 290 | 290 | 290 | 250 | 280
